Where two headings read alike, the source gives them in different places.
Columns and labels:
[1] = test system: mono-methyl arginine in RKO cells; test: RKO Methylation Assay, In Cell Western (ICW) for detection of mono-methyl arginine and DNA content; type: cell-based; conditions: RKO cells; for EC30: read-out: In Cell Western EC30
How it was run: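 RKO cells were treated with compound for 72 hours at 37 °C, methanol-fixed and stained overnight at 4 °C with anti-mono-methyl arginine (1:200), with DRAQ5 for DNA. Odyssey 800/700 nm intensity ratio was normalized to DMSO and 20 μM reference-compound controls. EC30 from triplicate nine-point curves.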

[2] = target: full-length human PRMT8 isoform 1 (Homo sapiens, UniProt Q9NR22); test: PRMT8 Biochemical Assay (3H-SAM Flashplate, peptide substrate); conditions: read-out: Biochemical IC50 PRMT8
How it was run: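 Full-length human PRMT8 (1.5 nM, E. coli-expressed, GST removed) preincubated 30 min at room temperature with compound, then reacted with 50 nM 3H-SAM plus 550 nM cold SAM and 150 nM biotinylated H4 31-45 peptide in 20 mM Bicine pH 7.6, 1 mM TCEP, 0.005% BSG, 0.002% Tween 20, 2% DMSO. Quenched with 400 uM cold SAM; labelled peptide captured on streptavidin Flashplate, % inhibition versus 1 mM SAH and DMSO controls fitted to 4- or 3-parameter curve.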

[3] = Homo sapiens, RKO, 72 h, 72 hours compound incubation, mono-methyl arginine signal normalised to DNA content (DRAQ5), percent activation vs 20 μM reference compound
[4] = Homo sapiens, RKO, 72 h, 72 hours incubation, mono-methyl arginine signal normalised to DNA content, single experiment or average of multiple experiments
[5] = single experiment or average of multiple experiments

full-length human PRMT8 isoform 1, sequence (Q9NR22 whole entry, canonical isoform): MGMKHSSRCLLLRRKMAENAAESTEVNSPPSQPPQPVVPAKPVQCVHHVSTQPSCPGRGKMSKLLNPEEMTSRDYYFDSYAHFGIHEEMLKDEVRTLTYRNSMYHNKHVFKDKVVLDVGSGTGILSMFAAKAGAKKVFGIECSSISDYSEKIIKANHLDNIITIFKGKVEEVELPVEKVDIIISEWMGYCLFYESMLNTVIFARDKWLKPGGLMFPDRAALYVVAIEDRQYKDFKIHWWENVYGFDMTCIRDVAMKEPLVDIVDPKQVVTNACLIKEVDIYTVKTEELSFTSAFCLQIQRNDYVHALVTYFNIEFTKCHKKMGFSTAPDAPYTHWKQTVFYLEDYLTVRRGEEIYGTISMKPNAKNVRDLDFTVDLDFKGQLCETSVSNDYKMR

SMILES	IC50 [2]	IC50 [2, 5]	EC30 [1, 3]	EC30 [1, 4]	In Cell Western EC30 ([1]; 72 hours compound incubation, mono-methyl arginine signal normalised to DNA content (DRAQ5), percent activation vs 20 μM reference compound)	EC30 ([1]; 72 hours incubation, mono-methyl arginine signal normalised to DNA content, single experiment or average of multiple experiments)
CNCCN(C)Cc1c[nH]nc1[C@H]1CC[C@H](N(CCCOC)C(=O)CC(C)C)CC1 [Compound 241]	< 100 nM	48.9 nM	< 3000 nM	1180 nM		
CNCCN(C)Cc1c[nH]nc1[C@H]1CC[C@H](N(CCCOC)C(=O)CCOc2ccccc2)CC1 [Compound 247]	< 100 nM	16.4 nM	< 3000 nM	698 nM		
CCN(C(=O)CCC(C)C)[C@H]1CC[C@@H](c2n[nH]cc2CN(C)CCNC)CC1 [Compound 251]	< 100 nM	20.7 nM	< 3000 nM	1450 nM		
CNCCN(C)Cc1c[nH]nc1[C@H]1CC[C@H](N(CCOC)C(=O)CC(C)C)CC1 [Compound 252]	< 100 nM	51.5 nM	< 3000 nM	267 nM		
CNCCN(C)Cc1cnn(C)c1[C@H]1CC[C@]2(CC1)CC(C)(C)CO2 [Compound 257]	< 100 nM	31 nM	< 3000 nM	13.2 nM		
CNCCN(C)Cc1c[nH]nc1[C@H]1CC[C@@H](C(=O)N(C)CCOc2ccccc2)CC1 [Compound 259]	< 100 nM	17.1 nM	< 3000 nM	408 nM		
CNCCN(C)Cc1c[nH]nc1[C@H]1CC[C@@H](N(CCOC)C(=O)CCC(C)C)CC1 [Compound 261]	< 100 nM	16.7 nM	< 3000 nM	289 nM		
CNCCN(C)Cc1c[nH]nc1C1CCC(C)(C)[C@H](C(=O)NCC(C)C)C1 (stereo partly shown) [Compound 262]	< 100 nM	72.4 nM	< 3000 nM	289 nM		

Now from value to molecule, other results behind:

IC50 [2]	IC50 [2, 5]	SMILES	EC30 [1, 3]	EC30 [1, 4]	In Cell Western EC30 ([1]; 72 hours compound incubation, mono-methyl arginine signal normalised to DNA content (DRAQ5), percent activation vs 20 μM reference compound)	EC30 ([1]; 72 hours incubation, mono-methyl arginine signal normalised to DNA content, single experiment or average of multiple experiments)
< 100 nM	10.9 nM	CCN(C(=O)CC(C)C)[C@H]1CC[C@@H](c2n[nH]cc2CN(C)CCNC)CC1 [Compound 240]	< 3000 nM	1180 nM		
101 to 1000 nM	113 nM	CNCCN(C)Cc1c[nH]nc1[C@H]1CC[C@@H](N(CCCOC)C(=O)CCC(C)C)CC1 [Compound 244]	< 3000 nM	2530 nM		
< 100 nM	23.8 nM	CNCCN(C)Cc1c[nH]nc1[C@H]1CC[C@@H](N(CCCOC)C(=O)CCOc2ccccc2)CC1 [Compound 246]	< 3000 nM	79.9 nM		
< 100 nM	28.2 nM	CNCCN(C)Cc1c[nH]nc1[C@H]1CC[C@H](N(CC(C)C)C(=O)CCCOC)CC1 [Compound 248]	< 3000 nM	1310 nM		
< 100 nM	84.5 nM	CNCCN(C)Cc1c[nH]nc1[C@H]1CC[C@H](N(CC(C)C)C(=O)CCCOC)CC1 [Compound 249]			A (“A” indicates an EC30 ≤ 3.00 μM)	658.5 nM
< 100 nM	11.7 nM	CNCCN(C)Cc1c[nH]nc1[C@H]1CC[C@]2(CCOC2(C)C)CC1 [Compound 253]	< 3000 nM	56.6 nM		
< 100 nM	44 nM	CNCCN(C)Cc1c[nH]nc1[C@H]1CC[C@H](N(CCOC)C(=O)CCC(C)C)CC1 [Compound 254]	< 3000 nM	1340 nM		
< 100 nM	24.5 nM	CNCCN(C)Cc1c[nH]nc1C1CCC(C)(C)[C@@H](C(=O)OC)C1 (stereo partly shown) [Compound 255]	< 3000 nM	214 nM		
< 100 nM	44 nM	CNCCN(C)Cc1c[nH]nc1C1CCC(C)(C)[C@H](C(=O)OC)C1 (stereo partly shown) [Compound 256]	< 3000 nM	316 nM		
< 100 nM	10.8 nM	CNCCN(C)Cc1c[nH]nc1[C@H]1CC[C@H](C(=O)N(C)CCOc2ccccc2)CC1 [Compound 258]	< 3000 nM	303 nM		
< 100 nM	37.3 nM	CNCCN(C)Cc1c[nH]nc1[C@H]1CC[C@@]2(CCC(C)(C)O2)CC1 [Compound 260]	< 3000 nM	207 nM		
